What was measured:
Assay in all cases: relative viability (nuclei count vs DMSO), 5 days (fraction); higher = more cells survive
ABC-1 = tested on: ABC-1
How it was run: (§1)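 One day after seeding in 1536-well plates, lung cancer cell lines were dosed by pin tool. Dosing was either single-drug or a fixed anchor-drug dose plus five library-drug doses (not always all listed) in √10 steps. After 5 days, nuclei were stained in one fix-and-stain step and counted on 4× images, and relative viability is the nuclei count of treated wells over that of vehicle wells, given as the median of duplicate plates.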

NCI-H358 = tested on: NCI-H358
How it was run: as §1

EPLC-272H = tested on: EPLC-272H
How it was run: as §1

NCI-H441 = tested on: NCI-H441
How it was run: as §1

CAL-12T = tested on: CAL-12T
How it was run: as §1

HCC-15 = tested on: HCC-15
How it was run: as §1

NCI-H1993 = tested on: NCI-H1993
How it was run: as §1

NCI-H2085 = tested on: NCI-H2085
How it was run: as §1

NCI-H2126 = tested on: NCI-H2126
How it was run: as §1

NCI-H1915 = tested on: NCI-H1915
How it was run: as §1

UMC-11 = tested on: UMC-11
How it was run: as §1

HOP-62 = tested on: HOP-62
How it was run: as §1

COR-L 105 = tested on: COR-L 105
How it was run: as §1

HCC-78 = tested on: HCC-78
How it was run: as §1

NCI-H3122 = tested on: NCI-H3122
How it was run: as §1

NCI-H1755 = tested on: NCI-H1755
How it was run: as §1

NCI-H1666 = tested on: NCI-H1666
How it was run: as §1

LXF-289 = tested on: LXF-289
How it was run: as §1

NCI-H322M = tested on: NCI-H322M
How it was run: as §1

EMC-BAC-2 = tested on: EMC-BAC-2
How it was run: as §1

NCI-H2023 = tested on: NCI-H2023
How it was run: as §1

NCI-H1975 = tested on: NCI-H1975
How it was run: as §1

With `C=C1C(=O)O[C@@H](CCCCCCCC)[C@@H]1C(=O)O` [C-75] + Cc1nc(NC(=O)N2CCC[C@H]2C(N)=O)sc1-c1ccnc(C(C)(C)C(F)(F)F)c1 [Alpelisib] (partner 2 µM) as the molecule, how does the relative viability (ABC-1; first compound 0.08 µM) read?
The relative viability was 0.983.

And the relative viability (ABC-1; first compound 0.253 µM)?
Its relative viability is 1.12.

What about the relative viability (ABC-1; first compound 0.8 µM) of the same molecule?
The relative viability was 0.879.

And the relative viability (ABC-1; first compound 2.53 µM)?
Its relative viability is 0.991.

And the relative viability (ABC-1; first compound 8 µM)?
Its relative viability is 0.585.

And the relative viability (NCI-H358; first compound 0.08 µM)?
Its relative viability is 0.851.

And the relative viability (NCI-H358; first compound 0.253 µM)?
The relative viability was 0.735.

And the relative viability (NCI-H358; first compound 0.8 µM)?
The relative viability was 0.789.

And the relative viability (NCI-H358; first compound 2.53 µM)?
The relative viability was 0.859.

What about the relative viability (NCI-H358; first compound 8 µM) of the same molecule?
The relative viability was 0.808.

What about the relative viability (EPLC-272H; first compound 0.08 µM) of the same molecule?
The relative viability was 0.95.

What about the relative viability (EPLC-272H; first compound 0.253 µM) of the same molecule?
Its relative viability is 1.03.

And the relative viability (EPLC-272H; first compound 0.8 µM)?
The relative viability was 0.873.

And the relative viability (EPLC-272H; first compound 2.53 µM)?
Its relative viability is 0.732.

And the relative viability (EPLC-272H; first compound 8 µM)?
The relative viability was 0.862.

And the relative viability (NCI-H441; first compound 0.08 µM)?
Its relative viability is 0.762.

And the relative viability (NCI-H441; first compound 0.253 µM)?
Its relative viability is 0.734.

And the relative viability (NCI-H441; first compound 0.8 µM)?
The relative viability was 0.577.

What about the relative viability (NCI-H441; first compound 2.53 µM) of the same molecule?
The relative viability was 0.589.

What about the relative viability (NCI-H441; first compound 8 µM) of the same molecule?
Its relative viability is 0.602.

And the relative viability (CAL-12T; first compound 0.08 µM)?
The relative viability was 1.19.

And the relative viability (CAL-12T; first compound 0.253 µM)?
The relative viability was 1.47.

What about the relative viability (CAL-12T; first compound 0.8 µM) of the same molecule?
The relative viability was 1.12.

And the relative viability (CAL-12T; first compound 8 µM)?
The relative viability was 1.33.

And the relative viability (HCC-15; first compound 0.08 µM)?
The relative viability was 0.891.

And the relative viability (HCC-15; first compound 0.253 µM)?
The relative viability was 0.862.

And the relative viability (HCC-15; first compound 0.8 µM)?
Its relative viability is 0.873.

And the relative viability (HCC-15; first compound 2.53 µM)?
The relative viability was 0.641.

And the relative viability (HCC-15; first compound 8 µM)?
Its relative viability is 0.871.

What about the relative viability (NCI-H1993; first compound 0.08 µM) of the same molecule?
Its relative viability is 0.694.

What about the relative viability (NCI-H1993; first compound 0.253 µM) of the same molecule?
Its relative viability is 0.738.

And the relative viability (NCI-H1993; first compound 0.8 µM)?
The relative viability was 0.66.

And the relative viability (NCI-H1993; first compound 2.53 µM)?
The relative viability was 0.637.

And the relative viability (NCI-H1993; first compound 8 µM)?
Its relative viability is 0.727.

And the relative viability (NCI-H2085; first compound 0.08 µM)?
The relative viability was 0.974.

What about the relative viability (NCI-H2085; first compound 0.253 µM) of the same molecule?
Its relative viability is 1.1.

And the relative viability (NCI-H2085; first compound 0.8 µM)?
Its relative viability is 0.957.

What about the relative viability (NCI-H2085; first compound 2.53 µM) of the same molecule?
Its relative viability is 0.89.

And the relative viability (NCI-H2085; first compound 8 µM)?
The relative viability was 0.898.

And the relative viability (NCI-H2126; first compound 0.08 µM)?
The relative viability was 0.79.

And the relative viability (NCI-H2126; first compound 0.253 µM)?
The relative viability was 0.826.

And the relative viability (NCI-H2126; first compound 0.8 µM)?
The relative viability was 0.732.

What about the relative viability (NCI-H2126; first compound 2.53 µM) of the same molecule?
Its relative viability is 0.621.

And the relative viability (NCI-H2126; first compound 8 µM)?
Its relative viability is 0.774.

What about the relative viability (NCI-H1915; first compound 0.08 µM) of the same molecule?
The relative viability was 1.06.

What about the relative viability (NCI-H1915; first compound 0.253 µM) of the same molecule?
Its relative viability is 1.09.

And the relative viability (NCI-H1915; first compound 0.8 µM)?
Its relative viability is 1.07.

And the relative viability (NCI-H1915; first compound 2.53 µM)?
The relative viability was 0.51.

What about the relative viability (NCI-H1915; first compound 8 µM) of the same molecule?
The relative viability was 1.01.

And the relative viability (UMC-11; first compound 0.08 µM)?
Its relative viability is 0.927.

And the relative viability (UMC-11; first compound 0.253 µM)?
The relative viability was 1.15.

And the relative viability (UMC-11; first compound 0.8 µM)?
Its relative viability is 0.97.

And the relative viability (UMC-11; first compound 2.53 µM)?
Its relative viability is 0.909.

And the relative viability (UMC-11; first compound 8 µM)?
Its relative viability is 0.786.

What about the relative viability (HOP-62; first compound 0.08 µM) of the same molecule?
The relative viability was 0.9.

And the relative viability (HOP-62; first compound 0.253 µM)?
Its relative viability is 1.11.

And the relative viability (HOP-62; first compound 0.8 µM)?
Its relative viability is 0.95.

What about the relative viability (HOP-62; first compound 2.53 µM) of the same molecule?
Its relative viability is 0.926.

What about the relative viability (HOP-62; first compound 8 µM) of the same molecule?
The relative viability was 0.765.

What about the relative viability (COR-L 105; first compound 0.08 µM) of the same molecule?
Its relative viability is 1.15.

What about the relative viability (COR-L 105; first compound 0.253 µM) of the same molecule?
The relative viability was 1.1.

And the relative viability (COR-L 105; first compound 0.8 µM)?
The relative viability was 1.06.

What about the relative viability (COR-L 105; first compound 2.53 µM) of the same molecule?
The relative viability was 0.895.

And the relative viability (COR-L 105; first compound 8 µM)?
Its relative viability is 0.668.

And the relative viability (HCC-78; first compound 0.08 µM)?
Its relative viability is 0.297.

What about the relative viability (HCC-78; first compound 0.253 µM) of the same molecule?
Its relative viability is 0.318.

And the relative viability (HCC-78; first compound 0.8 µM)?
Its relative viability is 0.354.

And the relative viability (HCC-78; first compound 2.53 µM)?
The relative viability was 0.336.

What about the relative viability (HCC-78; first compound 8 µM) of the same molecule?
Its relative viability is 0.408.

What about the relative viability (NCI-H3122; first compound 0.08 µM) of the same molecule?
Its relative viability is 0.767.

And the relative viability (NCI-H3122; first compound 0.253 µM)?
The relative viability was 0.922.

And the relative viability (NCI-H3122; first compound 0.8 µM)?
Its relative viability is 0.765.

And the relative viability (NCI-H3122; first compound 8 µM)?
The relative viability was 0.801.

And the relative viability (NCI-H1755; first compound 0.08 µM)?
Its relative viability is 0.938.

What about the relative viability (NCI-H1755; first compound 0.253 µM) of the same molecule?
Its relative viability is 0.823.

And the relative viability (NCI-H1755; first compound 0.8 µM)?
The relative viability was 0.913.

What about the relative viability (NCI-H1755; first compound 2.53 µM) of the same molecule?
The relative viability was 0.739.

What about the relative viability (NCI-H1755; first compound 8 µM) of the same molecule?
Its relative viability is 0.919.

What about the relative viability (NCI-H1666; first compound 0.08 µM) of the same molecule?
Its relative viability is 0.908.

And the relative viability (NCI-H1666; first compound 0.253 µM)?
Its relative viability is 1.13.

What about the relative viability (NCI-H1666; first compound 0.8 µM) of the same molecule?
Its relative viability is 0.879.

And the relative viability (NCI-H1666; first compound 2.53 µM)?
The relative viability was 0.987.

What about the relative viability (NCI-H1666; first compound 8 µM) of the same molecule?
Its relative viability is 0.71.

And the relative viability (LXF-289; first compound 0.08 µM)?
Its relative viability is 1.01.

What about the relative viability (LXF-289; first compound 0.253 µM) of the same molecule?
The relative viability was 0.979.

And the relative viability (LXF-289; first compound 0.8 µM)?
Its relative viability is 0.992.

What about the relative viability (LXF-289; first compound 2.53 µM) of the same molecule?
Its relative viability is 0.973.

And the relative viability (LXF-289; first compound 8 µM)?
The relative viability was 1.09.

What about the relative viability (NCI-H322M; first compound 0.08 µM) of the same molecule?
Its relative viability is 0.776.

What about the relative viability (NCI-H322M; first compound 0.253 µM) of the same molecule?
Its relative viability is 1.05.

What about the relative viability (NCI-H322M; first compound 0.8 µM) of the same molecule?
The relative viability was 0.821.

And the relative viability (NCI-H322M; first compound 2.53 µM)?
Its relative viability is 0.771.

What about the relative viability (NCI-H322M; first compound 8 µM) of the same molecule?
Its relative viability is 0.836.

What about the relative viability (EMC-BAC-2; first compound 0.08 µM) of the same molecule?
The relative viability was 0.726.

And the relative viability (EMC-BAC-2; first compound 0.253 µM)?
Its relative viability is 0.688.

What about the relative viability (EMC-BAC-2; first compound 0.8 µM) of the same molecule?
The relative viability was 0.717.

What about the relative viability (EMC-BAC-2; first compound 2.53 µM) of the same molecule?
The relative viability was 0.679.

What about the relative viability (EMC-BAC-2; first compound 8 µM) of the same molecule?
Its relative viability is 0.726.

And the relative viability (NCI-H2023; first compound 0.08 µM)?
The relative viability was 0.637.

And the relative viability (NCI-H2023; first compound 0.253 µM)?
The relative viability was 0.715.

What about the relative viability (NCI-H2023; first compound 0.8 µM) of the same molecule?
The relative viability was 0.592.

What about the relative viability (NCI-H2023; first compound 2.53 µM) of the same molecule?
Its relative viability is 0.419.

What about the relative viability (NCI-H2023; first compound 8 µM) of the same molecule?
Its relative viability is 0.543.

And the relative viability (NCI-H1975; first compound 0.08 µM)?
Its relative viability is 0.657.

What about the relative viability (NCI-H1975; first compound 0.253 µM) of the same molecule?
Its relative viability is 0.675.

And the relative viability (NCI-H1975; first compound 0.8 µM)?
The relative viability was 0.698.

What about the relative viability (NCI-H1975; first compound 2.53 µM) of the same molecule?
Its relative viability is 0.61.

What about the relative viability (NCI-H1975; first compound 8 µM) of the same molecule?
Its relative viability is 0.66.
